This assay deals with cathepsin B (Homo sapiens, UniProt P07858). As to the kind of experiment: Cathepsin B-responsive fluorescence activation. Format: biochemical. As to conditions: 1 μM, cathepsin B only (1 unit mL-1), pH 5.0 buffer, 0.1% Tween 80, 37 °C. The protocol:
To examine the response of PMB 1 toward MMP-2 and cathepsin B, its absorption and fluorescence spectra were monitored in the presence of these stimuli at 37 °C over a period of 25 h, using the non-cleavable analogue 14 as the negative control. For studying the MMP-2-responsive effect, MMP-2 (2 μg mL^–1) in PBS at pH 7.4 was used to mimic the high serum levels of this enzyme in patients with cancer.[68] The effect of cathepsin B (using a concentration of 1 unit mL^–1) was studied in the working buffer mentioned above at pH 5.0 to mimic the lysosomal environment.[69] […] Similar results were obtained for the study using cathepsin B in the buffer (Figure S8e–h). […] The more flexible ring-opening structure, however, might slightly increase the separation of the two moieties, leading to a lower FRET efficiency,[70] which could explain the small increase in fluorescence intensity. […] As expected, both the absorption and fluorescence spectra were not changed toward these two enzymes (Figure S9).
The fluorescence recovery was then determined for 1 under the aforementioned conditions, assuming that the fluorescence intensity of 8 at the same concentration in the same medium was the maximum fluorescence intensity that could be recovered. […]
All of the solutions were stirred continuously at 37 °C. The ir electronic absorption and fluorescence spectra were monitored over a period of 25 h. […]

Turning to `CCN(CC)c1ccc2nc3ccc(/N=N/c4ccc(N(C)CCCNC(=O)OC[C@@H]5[C@@H]6CCc7nnn(CC(=O)NCCCC[C@@H]8NC(=O)CNC(=O)[C@H](CCCCN)NC(=O)[C@H](CCCNC(=N)N)NC(=O)[C@H](C(C)C)NC(=O)CNC(=O)[C@H](CC(C)C)NC(=O)[C@@H]9CCCN9C(=O)[C@H](CCCCN)NC(=O)[C@@H](N)CSCc9cc(COc%10ccc(C%11=C%12C(C)=C(I)C(/C=C/c%13ccc(OCCOCCOCCOC)cc%13)=[N+]%12[B-](F)(F)n%12c(/C=C/c%13ccc(OCCOCCOCCOC)cc%13)c(I)c(C)c%12%11)cc%10)cc(c9)CSC[C@@H](C(N)=O)NC(=O)[C@H](CCCCN)NC(=O)[C@H](CCCCN)NC(=O)CNC(=O)[C@H](CC(C)C)NC(=O)[C@H](Cc9ccccc9)NC(=O)CNC(=O)[C@H](CCCCN)NC(=O)CNC8=O)c7CC[C@@H]65)cc4)cc3[n+](-c3ccccc3)c2c1` [compound 1], the “on/off ratio (fluorescence intensity at 25 h / initial intensity)” value is “ca. 2.7”.

Values taken from article PMC10080691, “Enzyme-Responsive Double-Locked Photodynamic Molecular Beacon for Targeted Photodynamic Anticancer Therapy” (Journal of the American Chemical Society, 2023).
